Data as given in US20170304228A1, “NEW INDICATION OF CINACALCET HCL PHARMACEUTICAL COMPOSITION FOR TREATING CANCER” (LAUNX BIOMEDICAL CO., LTD., priority 2014, published 2017).
Where “and” joins values, the source holds several entries; their conditions need not be identical. Equal values may be shown once. Where a name gives a salt, the structure may show the parent alone. Read-outs that look alike come from different tables or passages of the source.

Columns and labels:
[1] = system: H1650; test: Cell viability analysis (WST-1), H1650; assay type: cell-based; conditions: Homo sapiens, read-out: survival rate (viability) of cells
Procedure: (§1) The cell numbers were counted and reseed as 2×10^6 in culture plate/flask. Then, the culture medium were added to a volume of 10 ml, and the cells were cultured for 2-3 days. Then, the cells were suspended for loading into 96-well plates. The number of cells was 3000 and the volume of the culture medium was 100 μl each well.
Removing the original culture medium from 96-well plate. Then add 100 μl of commercially drug at a concentration of 10 μM per well. After 72 hours, add the diluted WST-1 reagent to the well with 100 μl/well, and the diluted WST-1 reagent was acquired from the dilution of 9:1 medium and WST-1 stock reagent. Finally, the total volume of each well was 200 μl/well. […] Detecting and calculate the survival rate of each cancer cells with an ELISA reader at OD450 nm. The lower viability of cancer cells represents better inhibition effect via the Cinacalcet HCl drug. Otherwise, the higher viability of cancer cells represents worse inhibition effect via the Cinacalcet HCl drug.
This inhibition test of Cinacalcet HCl on pleural-related cancer cells were using two lung cancer cell lines A549 and H1650. The inhibitory tests of Cinacalcet HCl were performed 4 times for each cell lines and then the average value of the inhibitory tests was calculated.

[2] = system: T24; test: Cell viability analysis (WST-1), T24; assay type: cell-based; conditions: Homo sapiens, read-out: survival rate (viability) of cells
Procedure: as §1
(§2) Removing the original culture medium from 96-well plate. Then add 100 μl of commercially drug at a concentration of 10 μM per well. After 72 hours, add the diluted WST-1 reagent to the well with 100 μl/well, and the diluted WST-1 reagent was acquired from the dilution of 9:1 medium and WST-1 stock reagent. Finally, the total volume of each well was 200 μl/well. Culture the 96-well plate at 37° C. for 30 to 90 minutes. Detecting and calculate the survival rate of each cancer cells with an ELISA reader at OD450 nm. The lower viability of cancer cells represents better inhibition effect via the Cinacalcet HCl drug. Otherwise, the higher viability of cancer cells represents worse inhibition effect via the Cinacalcet HCl drug.
(§3) This inhibition test of Cinacalcet HCl on abdominal-related cancer cells were using bladder cancer cell line TSGH and T24 (Table 3), cervical cancer cell lines HeLa and C-33A (Table 4), renal cancer cell line 786-O (Table 5). The inhibitory tests of Cinacalcet HCl were performed 4 times for each cell lines and then the average value of the inhibitory tests was calculated.

[3] = system: C-33A; test: Cell viability analysis (WST-1), C-33A; assay type: cell-based; conditions: Homo sapiens, read-out: survival rate (viability) of cells
Procedure: as §1, §2, §3

[4] = system: PC-3; test: Cell viability analysis (WST-1), PC-3; assay type: cell-based; conditions: Homo sapiens, read-out: survival rate (viability) of cells
Procedure: as §1, §2
This inhibition test of Cinacalcet HCl on endocrine-related cancer cells were using prostate cancer cell lines PC-3 and LNCap (Table 6), breast cancer cell lines MCF7 and MDA-MB-231 (Table 7), and ovarian cancer cell lines NIH-OVCAR-3 and TOV-21G (Table 8). The inhibitory tests of Cinacalcet HCl were performed 4 times for each cell lines and then the average value of the inhibitory tests was calculated.

[5] = system: AGS; test: Cell viability analysis (WST-1), AGS; assay type: cell-based; conditions: Homo sapiens, read-out: survival rate (viability) of cells
Procedure: as §1, §2
(§4) This inhibition test of Cinacalcet HCl on gastrointestinal tract-related cancer cells were using gastric cancer cell lines AGS and MKN-45 (Table 9), hepatic cancer cell lines HepG2 and Hep3B (Table 10), colorectal cancer cell lines HCT116-wt and LoVo (Table 11), pancreatic cancer cell line AsPC-1 and BxPC-3(Table 12), tongue cancer cell line SAS (Table 13). The inhibitory tests of Cinacalcet HCl were performed 4 times for each cell lines and then the average value of the inhibitory tests was calculated.

[6] = system: BxPC-3; test: Cell viability analysis (WST-1), BxPC-3; assay type: cell-based; conditions: Homo sapiens, read-out: survival rate (viability) of cells
Procedure: as §1, §2, §4

[7] = system: SAS; test: Cell viability analysis (WST-1), SAS; assay type: cell-based
Procedure: as §1, §2, §4

[8] = system: bladder cancer cells; test: Summary of cell viability, bladder cancer cells; assay type: cell-based; conditions: 72 hours, read-out: Inhibitory effect
Procedure: as §1, §2
(§5) Cinacalcet HCl is having different inhibitory effect on different tumor cell type even in the same cancer. […] (FIG. 1)

[9] = system: breast cancer cells; test: Summary of cell viability, breast cancer cells; assay type: cell-based; conditions: 72 hours, read-out: Inhibitory effect
Procedure: as §1, §2, §5

[10] = system: hepatic cancer cells; test: Summary of cell viability, hepatic cancer cells; assay type: cell-based; conditions: 72 hours, read-out: Inhibitory effect
Procedure: as §1, §2, §5

[11] = Animal model test of gastric cancer, body weight and health status; assay type: in vivo, mice; conditions: for weight: single mice A, B, C, hydrochloride
Procedure: In this invention, the female mice were(BALB/cAnN.Cg-Foxnl™/CrlNarl) and purchased from National Laboratory Animal Center (Taiwan). The weight of the mice were 21±1 g. These mice were subcutaneously injected with gastric cancer cells (AGS) and then put these mice into different cages at random. The drug test experiment was divided into three groups, include “control group”, “low dose group (100 mg/kg/day)”, “high dose group (200 mg/kg/day)”. These mice were then injected test drug intraperitoneally once daily […]. The tumor sizes and body weight were measured twice a week. The tumor sizes were measured and calculated by formula: (L×W^2)/2. L represents the tumor longest length. W represents the tumor shortest diameter.

C[C@@H](NCCCc1cccc(C(F)(F)F)c1)c1cccc2ccccc12 [Cinacalcet HCl, Cinacalcet hydrochloride]
viability at 10 µM ([1]; NCI-H1650, 10 μM, 72 hours, test 1-10 min): 86.8% | viability at 10 µM ([1]; NCI-H1650, 10 μM, 72 hours, test 2-20 min): 67.5% | viability at 10 µM ([1]; NCI-H1650, 10 μM, 72 hours, test 3-20 min): 76.8% | viability at 10 µM ([1]; NCI-H1650, 10 μM, 72 hours, test 4-20 min): 75.2% | viability at 10 µM ([1]; NCI-H1650, 72 h, 10 μM, Average of tests): 76.5% | viability at 10 µM ([2]; T-24, 10 μM, 72 hours, test T24-1-30 min): 71.1% | viability at 10 µM ([2]; T-24, 10 μM, 72 hours, test T24-2-20 min): 133% | viability at 10 µM ([2]; T-24, 10 μM, 72 hours, test T24-3-20 min): 177% | viability at 10 µM ([2]; T-24, 10 μM, 72 hours, test T24-4-20 min): 103% | viability at 10 µM ([2]; T-24, 72 h, 10 μM, average of tests): 121% | viability at 10 µM ([3]; 72 h, average of tests): 110% | viability at 10 µM ([3]; 72 hours, test 0524-10 min): 114% | viability at 10 µM ([3]; 72 hours, test 0526-10 min): 119% | viability at 10 µM ([3]; 72 hours, test 0529-10 min): 108% | viability at 10 µM ([3]; 72 hours, test 0531-10 min): 100% | viability at 10 µM ([4]; PC-3, 10 μM, 72 hours, test PC-3-0524-10 min): 103% | viability at 10 µM ([4]; PC-3, 10 μM, 72 hours, test PC-3-0526-10 min): 132% | viability at 10 µM ([4]; PC-3, 10 μM, 72 hours, test PC-3-0529-10 min): 120% | viability at 10 µM ([4]; PC-3, 10 μM, 72 hours, test PC-3-0531-10 min): 135% | viability at 10 µM ([4]; PC-3, 72 h, 10 μM, average of tests): 122% | viability at 10 µM ([5]; 72 h, average of tests): 28.3% | viability at 10 µM ([5]; 72 hours, test 0510-10 min): 26.6% | viability at 10 µM ([5]; 72 hours, test 0512-10 min): 20% | viability at 10 µM ([5]; 72 hours, test 0515-10 min): 52.3% | viability at 10 µM ([5]; 72 hours, test 0517-10 min): 14.5% | viability at 10 µM ([6]; BXPC-3, 10 μM, 72 hours, test 3-4-30 min): 76.2% | viability at 10 µM ([6]; BXPC-3, 10 μM, 72 hours, test 3-7-3-30 min): 64.6% | viability at 10 µM ([6]; BXPC-3, 10 μM, 72 hours, test 3-7-4-30 min): 78.8% | viability at 10 µM ([6]; BXPC-3, 10 μM, 72 hours, test 3-7-7-30 min): 100% | viability at 10 µM ([6]; BXPC-3, 72 h, 10 μM, Average of tests): 79.9% | viability at 10 µM ([7]; 72 h, average of tests, read-out: survival rate (viability) of cells): 82.4% | viability at 10 µM ([7]; 72 h, summary, tongue cancer, read-out: Inhibitory effect): 77.4% | viability at 10 µM ([7]; 72 hours, test 6-26-10 min, read-out: survival rate (viability) of cells): 45.7% | viability at 10 µM ([7]; 72 hours, test 6-28-10 min, read-out: survival rate (viability) of cells): 88.9% | viability at 10 µM ([7]; 72 hours, test 6-30-10 min, read-out: survival rate (viability) of cells): 96.2% | viability at 10 µM ([7]; 72 hours, test 7-3-10 min, read-out: survival rate (viability) of cells): 98.9% | viability at 10 µM [8]: 90.4% | viability at 10 µM [9]: 108% | viability at 10 µM [10]: 102% | weight ([11]; Low dose (100 mg/kg/day) intraperitoneally, First measurement, 100 mg/kg/day): 20 g and 16 g and 21 g | weight ([11]; Low dose (100 mg/kg/day) intraperitoneally, Fourth measurement, 100 mg/kg/day): 22 g and 23 g | weight ([11]; Low dose (100 mg/kg/day) intraperitoneally, Second measurement, 100 mg/kg/day): 21 g and 22 g and 19 g | weight ([11]; Low dose (100 mg/kg/day) intraperitoneally, Third measurement, 100 mg/kg/day): 23.5 g and 21 g | health status / death of tested mice during the treatment ([11]; both high and low doses): without death | weight of mice during the experiment ([11]; both low dose and high dose): did not show a significant decrease | weight ([11]; high dose (200 mg/kg/day) intraperitoneally, Fourth measurement, 200 mg/kg/day): 23 g and 20 g | weight ([11]; high dose (200 mg/kg/day) intraperitoneally, Second measurement, 200 mg/kg/day): 18.5 g and 21 g and 19 g | weight ([11]; high dose (200 mg/kg/day) intraperitoneally, Third measurement, 200 mg/kg/day): 19 g and 22 g and 18.5 g
